Test results reported in patent US11584714B2 (priority 2018, dated 2023).
Where a name gives a salt, the structure may show the parent alone. Read-outs that look alike come from different tables or passages of the source.

Legend:
[1] = target: MASP-2 (CCP1-CCP2-SP) (Homo sapiens (Human), UniProt O00187); assay: biochemical; format: biochemical
[2] = target: human α-thrombin (Homo sapiens (Human), UniProt P00734); assay: Enzymatic assay for thrombin (Boc-VPR-AMC substrate); format: biochemical; settings: read-out: Thrombin Ki
[3] = MASP-2 inhibition versus thrombin
[4] = selectivity for MASP-2 inhibition versus thrombin

Sequence of MASP-2 (CCP1-CCP2-SP) (O00187 445-686): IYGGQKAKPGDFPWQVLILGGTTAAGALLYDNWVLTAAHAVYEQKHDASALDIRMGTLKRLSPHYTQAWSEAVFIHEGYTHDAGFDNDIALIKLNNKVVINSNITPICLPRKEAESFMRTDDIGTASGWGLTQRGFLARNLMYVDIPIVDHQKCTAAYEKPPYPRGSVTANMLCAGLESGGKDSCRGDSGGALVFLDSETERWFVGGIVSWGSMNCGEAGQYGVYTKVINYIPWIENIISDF

SMILES | Ki [2] [µM] | other results
C[C@H](NC(=O)[C@H](N)CCc1cc(Cl)cc(Cl)c1)C(=O)NCc1ccc(C(=N)N)cc1 [compound 1118] |  | MASP-2 vs. thrombin selectivity [1, 3]: ** (5.0 to 25-fold)
N=C(N)c1ccc(CNC(=O)[C@H]2CCCCN2C(=O)[C@H](NCC(=O)O)C2CCCCC2)cc1 [compound 1154] | < 0.5 | 
C[C@H](NC(=O)[C@H](N)CCc1ccc(F)c(F)c1)C(=O)NCc1ccc(C(=N)N)cc1 [compound 1085] | < 0.5 | MASP-2 vs. thrombin selectivity [1, 3]: ** (5.0 to 25-fold); Ki ([1]; read-out: MASP-2 Ki): < 0.5 µM
CC(=O)N[C@@H](C(=O)N1CC[C@H]1C(=O)NCc1ccc(C(=N)N)cc1)C1CCCCC1 [compound 1077] | < 0.5 | 
N[C@H](CCc1ccccc1)C(=O)N1CCC[C@H]1C(=O)NCc1cc(Cl)ccc1O [compound 1079, (S)-1-((R)-2-Amino-4-phenylbutanoyl)-N-(5-chloro-2-hydroxybenzyl)pyrrolidine-2-carboxamide] |  | Ki ([1]; read-out: MASP-2 Ki): < 0.5 µM
C[C@H](NC(=O)[C@H](N)CCc1cccc(Cl)c1)C(=O)NCc1ccc(C(=N)N)cc1 [compound 1081] |  | MASP-2 vs. thrombin selectivity [1, 3]: ** (5.0 to 25-fold)
C[C@H](NC(=O)[C@H](N)CCc1ccc(C(F)(F)F)cc1)C(=O)NCc1ccc(C(=N)N)cc1 [compound 1119, (R)-2-Amino-N—((S)-1-((4-carbamimidoylbenzyl)amino)-1-oxopropan-2-yl)-4-(4-(trifluoromethyl)phenyl)butanamide Dihydrochloride] |  | Ki ([1]; read-out: MASP-2 Ki): < 0.5 µM
Cc1nc(N)ccc1CNC(=O)[C@H](C)NC(=O)[C@H]1C[C@@H](c2cccc(CN)c2)CN1 [compound 1291, (2R,4S)—N—((S)-1-(((6-Amino-2-methylpyridin-3-yl)methyl)amino)-1-oxopropan-2-yl)-4-(3-(aminomethyl)phenyl)pyrrolidine-2-carboxamide] | > 25 | 
CNC(=O)c1ccc2c(=O)n(Cc3ccccc3)c(=O)n(CC(=O)NCc3ccc(C(=N)N)cc3)c2c1 [compound 2018, 3-Benzyl-1-(2-((4-carbamimidoylbenzyl)amino)-2-oxoethyl)-N-methyl-2,4-dioxo-1,2,3,4-tetrahydroquinazoline-7-carboxamide] |  | Ki ([2]; Zn/EDTA condition not given): > 25 µM
C[C@H](NC(=O)[C@H]1C[C@H](c2ccccc2)CN1)C(=O)NCc1ccc(C(=N)NO)cc1 [compound 1070] | > 25 | 
CC(C)N(CC(=O)NCc1ccc(C(=N)N)cc1)C(=O)[C@H](NCC(=O)O)C1CCCCC1 [compound 1117] | < 0.5 | 
N=C(N)c1ccc(CNC(=O)[C@@H]2CCN2C(=O)[C@H](NCC(N)=O)C2CCCCC2)cc1 [compound 1102, (S)-1-((R)-2-((2-amino-2-oxoethyl)amino)-2-cyclohexylacetyl)-N-(4-carbamimidoylbenzyl)azetidine-2-carboxamide] | < 0.5 | 
CCOC(=O)NC(=N)c1ccc(CNC(=O)[C@H](C)NC(=O)[C@H]2C[C@H](c3ccccc3)CN2)cc1 [compound 1294, Ethyl (imino(4-(((S)-2-((2R,4R)-4-phenylpyrrolidine-2-carboxamido)propanamido)methyl)phenyl)methyl)carbamate] | > 25 | 
C[C@H](NC(=O)[C@H](N)CCc1ccccc1)C(=O)NCCCCNC(=N)N [compound 1010] | > 25 | 
C[C@H](NC(=O)[C@H](N)CCc1ccccc1)C(=O)NCc1ccc(C(=N)NO)cc1 [compound 1157, (R)-2-Amino-N—((S)-1-((4-(N-hydroxycarbamimidoyl)benzyl)amino)-1-oxopropan-2-yl)-4-phenylbutanamide Dihydrochloride] | > 25 | 
CC(C)(C)OC(=O)N[C@@H](C(=O)N1CCC[C@H]1C(=O)NCc1ccc(C(=N)N)cc1)C1CCCCC1 [compound 1138] | < 0.5 | 
N=C(N)c1ccc(CNC(=O)[C@@H]2CCN2C(=O)[C@H](NCC(=O)O)C2CC2)cc1 [compound 1028, ((R)-2-((S)-2-((4-carbamimidoylbenzyl)carbamoyl)azetidin-1-yl)-1-cyclopropyl-2-oxoethyl)glycine] | < 0.5 | 
C[C@H](NC(=O)[C@@H](CCc1ccccc1)NCc1ccc(C(=O)N2CCOCC2)cc1)C(=O)NCc1ccc(C(=N)N)cc1 [compound 1153] |  | MASP-2 vs. thrombin selectivity [1, 3]: **** (>100-fold)
N=C(N)c1ccc(CNC(=O)C(CF)NC(=O)[C@H](N)CCc2ccccc2)cc1 (stereo partly drawn) [compound 1050, (2R)-2-Amino-N-(1-((4-carbamimidoylbenzyl)amino)-3-fluoro-1-oxopropan-2-yl)-4-phenylbutanamide Dihydrochloride] |  | Ki ([1]; read-out: MASP-2 Ki): < 0.5 µM
CC(C)(C)[C@@H](N)C(=O)N1CC[C@H]1C(=O)NCc1ccc(C(=N)N)cc1 [compound 1005] | < 0.5 | 
C[C@H](NC(=O)[C@H](N)CCc1ccccc1)C(=O)NCc1cc(Cl)ccc1C#N [compound 1313, Trifluoroacetate salt] |  | MASP-2 vs. thrombin selectivity [1, 4]: * (≥1.0 to <5.0-fold)
N=C(N)c1ccc(CNC(=O)[C@@H]2CCN2C(=O)[C@H](NCC(=O)O)c2ccccc2)cc1 [compound 1100] | < 0.5 | 
C[C@H](NC(=O)[C@H](N)CCc1ccccc1)C(=O)NCc1ccc(C(=N)N)cc1 [compound 1024] |  | MASP-2 vs. thrombin selectivity [1, 3]: ** (5.0 to 25-fold)
N=C(N)c1ccc(CNC(=O)[C@@H]2CCN2C(=O)[C@H]2CCCN2)cc1 [compound 1003] | < 0.5 | 

SMILES | Ki [2] [µM] | other results
C[C@H](NC(=O)[C@H](N)CCc1ccc(F)cc1)C(=O)NCc1ccc(C(=N)N)cc1 [compound 1047] | < 0.5 | 
CN(CC(=O)NCc1ccc(C(=N)N)cc1)C(=O)[C@H](NCC(=O)O)C1CCCCC1 [compound 1096] | < 0.5 | 
CCCCCn1c(=O)c2ccccc2n(CC(=O)Nc2ccc(NC(C)=O)cc2)c1=O [compound 2019] |  | Ki ([2]; Zn/EDTA condition not given): > 25 µM
CC[C@H](NC(=O)[C@H](NCC(=O)O)C1CCCCC1)C(=O)NCc1ccc(C(=N)N)cc1 [compound 1106] | < 0.5 | 
C[C@H](NC(=O)[C@@H](CCc1ccccc1)NCc1ccc(N2CCNCC2)cc1)C(=O)NCc1ccc(C(=N)N)cc1 [compound 1148, (R)—N—((S)-1-((4-Carbamimidoylbenzyl)amino)-1-oxopropan-2-yl)-4-phenyl-2-((4-(piperazin-1-yl)benzyl)amino)butanamide] |  | Ki ([1]; read-out: MASP-2 Ki): < 0.5 µM
Cc1cc(N)nc(C)c1CNC(=O)[C@H](C)NC(=O)[C@H](N)CCc1ccccc1 [compound 1213] | > 25 | 
C[C@H](NC(=O)[C@H](N)CCc1ccccc1)C(=O)NCc1ccc(CN)cc1 [compound 1014] | > 25 | 
C[C@H](NC(=O)[C@H]1C=C(c2ccccc2)CN1)C(=O)NCc1ccc(C(=N)N)cc1 [compound 1032] |  | Ki ([1]; read-out: MASP-2 Ki): < 0.5 µM
N=C(N)c1ccc(CNC(=O)[C@@H]2CCN2C(=O)[C@H]2CC3CCCCC3N2)cc1 (stereo partly drawn) [compound 1026] | < 0.5 | 
C[C@H](NC(=O)[C@H]1C[C@@H](c2ccccc2)CN1)C(=O)NCc1ccc(N)nc1 [compound 1255, (2R,4S)—N—((S)-1-(((6-Aminopyridin-3-yl)methyl)amino)-1-oxopropan-2-yl)-4-phenylpyrrolidine-2-carboxamide] | > 25 | 
C[C@H](NC(=O)[C@H]1C[C@H](c2ccccc2)CN1)C(=O)NCc1ccc(N)nc1 [compound 1012] | > 25 | 
N=C(N)c1ccc2[nH]c(-c3nc4ccccc4[nH]3)nc2c1 [compound 2009, 1H,1′H-[2,2′-bibenzo[d]imidazole-5-carboximidamidedihydrochloride] |  | Ki [1]: > 25 µM; Ki ([1]; +Zn, read-out: MASP-2 Ki): < 0.5 µM
C[C@H](NC(=O)[C@H](N)CCc1ccccc1)C(=O)NCc1cc(Cl)ccc1Cl [compound 1192] | > 25 | 
CCCCn1c(=O)c2ccccc2n(CC(=O)Nc2ccc(NC(C)=O)cc2)c1=O [compound 2020] |  | Ki ([2]; Zn/EDTA condition not given): > 25 µM
C[C@H](NC(=O)[C@H](N)CCc1ccccc1)C(=O)NCc1cccc(Cl)c1 [compound 1021] |  | Ki ([1]; read-out: MASP-2 Ki): < 10 µM
Cc1ccc(-c2c[nH]c(C(=O)N[C@@H](C)C(=O)NCc3ccc(C(=N)N)cc3)c2)cc1F [compound 1235, (S)—N-(1-((4-Carbamimidoylbenzyl)amino)-1-oxopropan-2-yl)-4-(3-fluoro-4-methylphenyl)-1H-pyrrole-2-carboxamide] |  | Ki ([1]; read-out: MASP-2 Ki): < 0.5 µM; MASP-2 vs. thrombin selectivity [1, 4]: *** (≥25 to <100-fold)
C[C@H](NC(=O)[C@H]1Cc2c([nH]c3ccccc23)CN1)C(=O)NCc1ccc(C(=N)N)cc1 [compound 1097] |  | MASP-2 vs. thrombin selectivity [1, 3]: *** (25 to 100-fold)
N=C(N)c1ccc(CNC(=O)[C@@H]2CCN2C(=O)[C@H](N)CC2CCCCC2)cc1 [compound 1158] | < 0.5 | 
COc1cc(C[C@@H]2CN[C@@H](C(=O)N[C@@H](C)C(=O)NCc3cc(Cl)ccc3-n3cnnn3)C2)cc(OC)c1 [compound 1419, (2R,4S)—N—((S)-1-((5-Chloro-2-(JH-tetrazol-1-yl)benzyl)amino)-1-oxopropan-2-yl)-4-(3,5-dimethoxybenzyl)pyrrolidine-2-carboxamide Trifluoroacetate salt] |  | MASP-2 vs. thrombin selectivity [1, 4]: * (≥1.0 to <5.0-fold)
N=C(N)NCCCNC(=O)[C@@H]1CCN1C(=O)[C@H](N)C1CCCCC1 [compound 1004, (S)-1-((R)-2-Amino-2-cyclohexylacetyl)-N-(3-guanidinopropyl)azetidine-2-carboxamide Hydrochloride] | < 0.5 | 
N=C(N)c1ccc(CNC(=O)Cn2c(=O)n(Cc3ccccc3)c(=O)c3ccc(C(N)=O)cc32)cc1 [compound 2017, ((4-((2-(3-Benzyl-7-carbamoyl-2,4-dioxo-3,4-dihydroquinazolin-1(2H)-yl)acetamido)methyl)phenyl)(imino)methyl)-λ^5-azaneyl Acetate] |  | Ki ([2]; Zn/EDTA condition not given): > 25 µM
N=C(N)c1ccc(CNC(=O)[C@@H]2CCN2C(=O)[C@H](N)C2CC2)cc1 [compound 1002, (S)-1-((R)-2-Amino-2-cyclopropylacetyl)-N-(4-carbamimidoylbenzyl)azetidine-2-carboxamide] | < 0.5 | 
N=C(N)c1ccc(CNC(=O)Cn2c(=O)n(Cc3ccccc3)c(=O)c3ccc(C(=O)NC4CCCCC4)cc32)cc1 [compound 2021, 3-Benzyl-1-(2-((4-carbamimidoylbenzyl)amino)-2-oxoethyl)-N-cyclohexyl-2,4-dioxo-1,2,3,4-tetrahydroquinazoline-7-carboxamide] |  | Ki ([2]; Zn/EDTA condition not given): > 25 µM
